Counter-ions that a name gives are not always drawn. Active and inactive are the calls of the source.
Columns and labels:
[1] = test system: P388/ADR; assay: cells; type: functional; details: Mus musculus
[2] = test system: P388; assay: cells; type: functional; details: Mus musculus
[3] = test system: SN12K1; assay: cells; type: functional; details: Homo sapiens
[4] = molecular target: T1, Short transient receptor potential channel 4 (Mus musculus, UniProt Q9QUQ5); assay: block of DAMGO-driven TRPC4 calcium entry – cell-based, HEK293 TRPC4/mu-opioid, Fluo-4 calcium, dose response (AID 434942); type: functional;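 note: potency of inhibitors blocking the TRPC4 calcium response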
T1 sequence (Q9QUQ5 whole entry): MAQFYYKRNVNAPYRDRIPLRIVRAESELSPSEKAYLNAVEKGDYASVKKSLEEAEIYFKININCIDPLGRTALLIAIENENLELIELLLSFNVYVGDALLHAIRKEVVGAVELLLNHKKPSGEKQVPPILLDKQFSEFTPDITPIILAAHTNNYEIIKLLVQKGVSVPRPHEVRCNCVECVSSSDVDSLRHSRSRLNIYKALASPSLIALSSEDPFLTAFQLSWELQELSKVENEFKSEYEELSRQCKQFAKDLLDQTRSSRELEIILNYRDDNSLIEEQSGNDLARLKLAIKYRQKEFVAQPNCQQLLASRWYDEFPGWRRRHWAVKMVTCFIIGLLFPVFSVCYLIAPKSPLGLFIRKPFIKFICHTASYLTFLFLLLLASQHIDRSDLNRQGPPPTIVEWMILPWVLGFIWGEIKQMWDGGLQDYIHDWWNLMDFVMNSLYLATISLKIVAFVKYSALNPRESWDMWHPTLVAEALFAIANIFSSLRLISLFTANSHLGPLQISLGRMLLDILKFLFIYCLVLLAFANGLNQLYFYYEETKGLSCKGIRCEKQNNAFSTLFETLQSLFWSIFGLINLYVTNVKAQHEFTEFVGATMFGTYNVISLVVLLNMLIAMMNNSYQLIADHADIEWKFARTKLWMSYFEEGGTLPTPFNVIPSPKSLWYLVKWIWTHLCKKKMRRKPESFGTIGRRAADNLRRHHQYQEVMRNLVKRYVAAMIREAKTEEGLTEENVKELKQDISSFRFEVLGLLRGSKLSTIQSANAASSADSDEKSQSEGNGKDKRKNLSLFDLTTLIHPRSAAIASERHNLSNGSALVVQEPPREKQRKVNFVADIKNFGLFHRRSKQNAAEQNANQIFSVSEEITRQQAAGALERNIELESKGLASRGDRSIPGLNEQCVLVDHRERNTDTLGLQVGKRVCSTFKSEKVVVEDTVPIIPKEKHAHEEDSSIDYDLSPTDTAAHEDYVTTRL

[5] = cells; type: functional, cell-based
[6] = cells; type: functional, cell-based; remark: listed apart in the source
[7] = NIH3T3 cell viability loss – ATP luminescence, mouse fibroblasts, counter-screen, dose response (AID 2010); type: functional, cell-based;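 note: cells exposed to compound for about 90 hours before reading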
[8] = Trypanosoma cruzi growth suppression in host cells – NIH3T3 host cells, beta-gal luminescence, confirmation (AID 2044); type: functional, cell-based;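 note: intracellular parasites grown in NIH/3T3 mouse fibroblasts as host cells; luminescent beta-galactosidase reporter signal from transgenic T. cruzi replicating inside host cells; inhibitors lower the luminescence signal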
[9] = test system: H4; assay: Luminescence Cell-Based Dose Response HTS to Identify Activators of 5'UTR Stem-Loop Driven Prion Protein mRNA Translation in H4 Neuroglioblastoma Cells. [Related pubchem assays: 1829 (Project Summary), 1814 (Primary HTS)]; type: functional; details: Homo sapiens
[10] = Luminescence Cell-Based Dose Response HTS to Identify Activators of Luciferase Translation or Activity in H4 […] Cells. [Related pubchem assays: 1829 (Project Summary), 1814 (Primary HTS)]; type: functional
[11] = Luminescence Cell-Based Dose Confirmation HTS to Identify Activators of 5'UTR Stem-Loop Driven Alpha-Synuclein mRNA Translation in H4 Neuroglioblastoma Cells. [Related pubchem assays: 1829 (Project Summary), 1814 (Primary HTS)]; type: functional
[12] = P. falciparum Dd2 growth inhibitors, dose response, SYBR Green, cherry-picked samples (AID 1159567); type: functional, cell-based
[13] = viability of HCT116 lacking mutant beta-catenin – cell-based, human colon tumor, dose response (AID 1045); type: functional;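 note: HCT116 colon tumor cells with beta catenin knocked out; cells exposed to compound for 60 hours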
[14] = viability of PTEN-deleted HCT116 cells – cell-based, HCT116 PTEN knockout, dose response (AID 1047); type: functional;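 note: HCT116 colon tumor cells with PTEN knocked out; cells exposed to compound for 60 hours before readout; potency for loss of cell viability measured by luminescence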
[15] = luciferase reporter signal suppression in cells – H4 neuroglioma cells, luminescence, dose response (AID 1990); type: functional, cell-based
[16] = molecular target: T2, Zinc finger protein mex-5 (Caenorhabditis elegans, UniProt Q9XUB2); assay: potency of MEX-5 RNA-binding blockers – biochemical, C. elegans, fluorescence polarization, dose response (AID 1960)
T2 sequence (Q9XUB2 whole entry): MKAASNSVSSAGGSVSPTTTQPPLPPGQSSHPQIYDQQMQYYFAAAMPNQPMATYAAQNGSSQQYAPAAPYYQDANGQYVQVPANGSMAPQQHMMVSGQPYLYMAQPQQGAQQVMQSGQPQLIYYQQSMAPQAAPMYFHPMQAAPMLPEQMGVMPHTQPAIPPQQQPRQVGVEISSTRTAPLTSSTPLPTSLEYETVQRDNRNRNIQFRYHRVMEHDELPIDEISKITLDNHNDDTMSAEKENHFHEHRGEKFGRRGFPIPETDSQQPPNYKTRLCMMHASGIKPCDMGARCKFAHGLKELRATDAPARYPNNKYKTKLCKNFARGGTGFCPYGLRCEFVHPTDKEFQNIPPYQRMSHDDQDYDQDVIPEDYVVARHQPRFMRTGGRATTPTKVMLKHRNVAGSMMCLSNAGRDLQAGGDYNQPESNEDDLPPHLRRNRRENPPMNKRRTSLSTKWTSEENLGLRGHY

[17] = alpha-synuclein stem-loop luciferase translation blockers – H4 neuroglioma cells, luminescence, confirmation (AID 1988); type: functional, cell-based
[18] = molecular target: T3, RNA-binding protein pos-1 (Caenorhabditis elegans, UniProt G5EF15); assay: disruptors of C. elegans POS-1 RNA interaction – biochemical, fluorescence polarization, dose response (AID 1964);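 note: purified POS-1 fused to maltose binding protein made in E. coli; potency of compounds blocking POS-1 binding to fluorescent RNA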
T3 sequence (G5EF15 whole entry): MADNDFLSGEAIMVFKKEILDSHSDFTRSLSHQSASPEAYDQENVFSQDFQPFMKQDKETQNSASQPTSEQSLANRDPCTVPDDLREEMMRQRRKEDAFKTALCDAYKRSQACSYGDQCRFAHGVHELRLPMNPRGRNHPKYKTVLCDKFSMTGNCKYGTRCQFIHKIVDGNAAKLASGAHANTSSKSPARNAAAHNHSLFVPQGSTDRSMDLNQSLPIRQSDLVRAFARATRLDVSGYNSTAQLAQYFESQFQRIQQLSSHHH

[19] = Luminescence Cell-Based Dose Response HTS to Identify Inhibitors of 5'UTR Stem-Loop Driven Prion Protein mRNA Translation in H4 Neuroglioblastoma Cells. [Related pubchem assays: 1827 (Project Summary), 1813 (Primary HTS)]; type: functional
[20] = molecular target: Fatty acid synthase (Homo sapiens, UniProt P49327); assay: inhibition of human FAS-TE enzyme activity – biochemical, kinetic fluorescence intensity, dose response (AID 624326); type: functional;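 note: rate of fluorescence rise from hydrolysis of a fluorogenic O-methyl fluorescein ester substrate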
[21] = test system: INS1; assay: INS-1E survival protection against cytokine death – cell-based, luminescence, retest, dose response (AID 449756); type: functional; details: Rattus norvegicus;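 note: cell death triggered by IL-1 beta plus TNF-alpha plus IFN-gamma mixture; protective hits raise ATP signal compared with cytokine alone wells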

Fatty acid synthase, sequence (P49327 whole entry): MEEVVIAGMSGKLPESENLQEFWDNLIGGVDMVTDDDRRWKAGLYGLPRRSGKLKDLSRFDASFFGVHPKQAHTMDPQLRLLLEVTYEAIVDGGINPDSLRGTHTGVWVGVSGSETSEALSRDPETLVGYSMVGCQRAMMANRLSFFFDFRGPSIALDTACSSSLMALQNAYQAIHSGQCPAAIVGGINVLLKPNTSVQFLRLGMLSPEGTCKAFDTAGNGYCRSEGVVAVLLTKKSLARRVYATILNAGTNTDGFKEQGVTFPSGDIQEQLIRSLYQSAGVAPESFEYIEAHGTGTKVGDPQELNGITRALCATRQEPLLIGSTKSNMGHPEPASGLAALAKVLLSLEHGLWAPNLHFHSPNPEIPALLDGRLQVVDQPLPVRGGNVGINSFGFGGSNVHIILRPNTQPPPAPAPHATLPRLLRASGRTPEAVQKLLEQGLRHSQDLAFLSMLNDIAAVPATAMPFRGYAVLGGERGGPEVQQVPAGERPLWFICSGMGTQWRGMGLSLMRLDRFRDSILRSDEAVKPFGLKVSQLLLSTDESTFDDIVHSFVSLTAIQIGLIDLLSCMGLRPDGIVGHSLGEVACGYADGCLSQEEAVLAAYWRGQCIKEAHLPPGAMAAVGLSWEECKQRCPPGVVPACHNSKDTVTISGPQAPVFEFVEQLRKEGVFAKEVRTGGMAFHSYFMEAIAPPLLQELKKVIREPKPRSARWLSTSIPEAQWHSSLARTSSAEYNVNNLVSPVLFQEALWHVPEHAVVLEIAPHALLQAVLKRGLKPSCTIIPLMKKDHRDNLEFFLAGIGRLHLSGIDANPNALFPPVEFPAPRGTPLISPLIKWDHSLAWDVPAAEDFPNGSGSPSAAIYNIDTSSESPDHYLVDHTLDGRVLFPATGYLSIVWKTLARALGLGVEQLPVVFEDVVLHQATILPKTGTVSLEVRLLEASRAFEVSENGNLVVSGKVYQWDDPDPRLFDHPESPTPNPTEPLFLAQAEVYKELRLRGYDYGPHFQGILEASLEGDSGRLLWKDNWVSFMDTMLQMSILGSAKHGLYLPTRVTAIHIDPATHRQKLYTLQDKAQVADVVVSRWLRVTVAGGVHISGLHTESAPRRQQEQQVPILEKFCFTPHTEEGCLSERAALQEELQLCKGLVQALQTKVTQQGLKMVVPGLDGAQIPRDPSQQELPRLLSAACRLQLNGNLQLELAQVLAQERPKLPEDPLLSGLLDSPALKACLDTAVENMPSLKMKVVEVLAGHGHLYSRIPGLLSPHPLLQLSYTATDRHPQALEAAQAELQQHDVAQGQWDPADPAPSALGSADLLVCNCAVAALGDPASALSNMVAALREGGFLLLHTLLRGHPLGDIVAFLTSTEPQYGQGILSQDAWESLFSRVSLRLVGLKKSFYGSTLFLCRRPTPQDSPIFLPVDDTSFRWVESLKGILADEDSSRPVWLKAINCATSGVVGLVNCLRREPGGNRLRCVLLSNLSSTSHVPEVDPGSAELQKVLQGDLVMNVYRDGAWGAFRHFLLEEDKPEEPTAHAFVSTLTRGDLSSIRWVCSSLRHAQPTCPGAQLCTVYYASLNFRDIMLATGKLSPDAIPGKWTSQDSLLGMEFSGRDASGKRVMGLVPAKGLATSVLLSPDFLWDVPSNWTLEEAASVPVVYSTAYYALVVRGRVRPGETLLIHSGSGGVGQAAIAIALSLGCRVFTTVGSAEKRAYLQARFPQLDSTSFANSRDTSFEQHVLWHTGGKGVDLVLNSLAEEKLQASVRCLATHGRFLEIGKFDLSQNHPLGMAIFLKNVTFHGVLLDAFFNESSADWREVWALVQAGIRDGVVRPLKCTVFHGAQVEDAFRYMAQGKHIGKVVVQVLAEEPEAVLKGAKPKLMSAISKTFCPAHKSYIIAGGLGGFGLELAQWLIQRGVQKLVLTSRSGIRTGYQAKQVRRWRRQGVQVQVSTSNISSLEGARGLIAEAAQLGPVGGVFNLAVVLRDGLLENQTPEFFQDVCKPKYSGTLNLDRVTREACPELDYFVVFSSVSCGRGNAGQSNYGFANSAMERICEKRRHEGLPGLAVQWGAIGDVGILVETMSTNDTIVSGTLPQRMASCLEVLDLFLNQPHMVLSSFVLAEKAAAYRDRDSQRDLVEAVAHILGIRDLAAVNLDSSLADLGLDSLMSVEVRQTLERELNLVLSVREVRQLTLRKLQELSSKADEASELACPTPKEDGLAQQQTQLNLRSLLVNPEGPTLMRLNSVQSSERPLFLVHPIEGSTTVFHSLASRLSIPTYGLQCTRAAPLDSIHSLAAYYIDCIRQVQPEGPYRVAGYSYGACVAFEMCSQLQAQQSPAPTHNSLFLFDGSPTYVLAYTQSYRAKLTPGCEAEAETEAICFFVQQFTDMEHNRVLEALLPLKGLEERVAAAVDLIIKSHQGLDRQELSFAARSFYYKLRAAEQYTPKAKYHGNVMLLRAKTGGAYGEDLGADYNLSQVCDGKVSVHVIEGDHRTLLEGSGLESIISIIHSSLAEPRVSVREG

## O=C(O)c1cn2c3c(cc(N4CCN(CCO)CC4)cc3c1=O)SCC2
[1]
  GI50: > 100 µM (inactive)
[2]
  GI50: 61.5 µM (inactive)
[3]
  GI50: 40.5 µM (inactive)

## CC(OCC(O)CN(C)CCOc1ccccc1)c1ccc(Cl)cc1 (centres undefined)
[4]
  EC50: 3.76 µM (active)

## CC(=O)Nc1cccc(NC(=O)CS(=O)(=O)c2cn(CC(=O)N3CCOCC3)c3ccccc23)c1
[5]
  EC50: > 350 µM (not active)
[6]
  EC50: > 350 µM (not active)

## CCOC(=O)c1c(NC(=O)C2CCCCC2C(=O)O)sc2c1CCCCC2 (centres undefined)
[4]
  EC50: 5.96 µM (active)

## O=Cc1c(Cn2ccnc2)c2cc([N+](=O)[O-])ccc2n1Cc1ccccc1
[1]
  GI50: 63 µM (inactive)
[2]
  GI50: 40.8 µM (inactive)
[3]
  GI50: 50.8 µM (inactive)

## Cc1cccc2cc(CN(Cc3nnnn3Cc3ccccc3)C3CCCC3)c(O)nc12
[4]
  EC50: 0.149 µM (active)

## Fc1ccccc1COc1ccccc1CNCc1ccncc1
[7]
  EC50: > 60 µM (not active)
[4]
  EC50: 7.5 µM (active)
[8]
  EC50: 1.45 µM (active)

## CCCNC(=O)c1cc(-c2ccco2)on1
[5]
  EC50: > 350 µM (not active)
[6]
  EC50: 10 µM (active)
[9]
  EC50: 50.4 µM (active)
[10]
  EC50: 59.3 µM (active)
[11]
  EC50: 13.7 µM (active)

## COC(=O)C1C(O)C(C)C(O)OC1C(C)C(O)C(C)/C=C\C=C(/C)C(=O)Nc1c(C)c(OC(C)=O)c2c(c1O)C(=O)C(C)=C1OCOC(/C(C)=C/C(C)=O)=C12 (centres undefined)
[1]
  GI50: 13.2 µM (inactive)
[2]
  GI50: 1.93 µM (inactive)
[3]
  GI50: 13.3 µM (inactive)

## C[C@@H]1CN([C@@H](C)CO)C(=O)c2cccc(NC(=O)C3CC3)c2O[C@H]1CN(C)Cc1ccc(-c2ccccc2)cc1
[12]
  AC50: 3.44 µM (active)

## CC[C@@]1(O)C[C@H](OC2CC(N(C)C)C(O)C(C)O2)c2c(cc3c(c2O)C(=O)c2c(O)ccc(O)c2C3=O)[C@H]1C(=O)OC (some centres undefined)
[1]
  GI50: 0.0175 µM (active)
[2]
  GI50: 0.0175 µM (active)
[3]
  GI50: 0.0328 µM (active)

## Cc1ccc(C)c(N2CCN(CCCNC(=O)Cn3cc4c(n3)CCCCC4)CC2)c1
[13]
  EC50: 11.8 µM (active)
[14]
  EC50: 14.5 µM (active)

## N=c1c(S(=O)(=O)c2ccc(Cl)cc2)cc2c(=O)n3ccccc3nc2n1C1CCCC1
[7]
  EC50: 11.4 µM (active)
[15]
  EC50: 24.8 µM (active)
[16]
  EC50: 148 µM (inconclusive)
[17]
  EC50: 31.7 µM (active)
[8]
  EC50: 0.87 µM (active)
[18]
  EC50: 135 µM (active)
[19]
  EC50: > 120 µM (not active)

## Cc1c(CN2CCC(n3nccc3NC(=O)CCc3ccccc3)CC2)cnn1C
[4]
  EC50: 0.421 µM (active)

## COc1ccccc1CN1C[C@@H](C)[C@H](OC)CN(C)C(=O)c2cc(NC(=O)Nc3ccccc3OC)ccc2OC[C@H]1C
[12]
  AC50: 4.12 µM (active)

## Cc1ccc(NC(=O)COc2ccc(/C=C3/S/C(=N/c4ccccc4)N(Cc4cccnc4)C3=O)cc2)cc1
[15]
  EC50: > 120 µM (not active)
[16]
  EC50: > 300 µM (not active)
[17]
  EC50: > 120 µM (not active)
[18]
  EC50: > 300 µM (not active)
[19]
  EC50: > 120 µM (not active)

## O=C(Nc1ccccc1)N(C1=NCCCCS1)c1cccc2ccccc12
[5]
  EC50: 43.7 µM (active)
[6]
  EC50: > 350 µM (not active)

## COc1cc(C(=O)Nc2nc(-c3ccc(Cl)cc3)c(C)s2)ccc1OCC(=O)Nc1ccc(F)cc1
[13]
  EC50: 1.46 µM (active)
[14]
  EC50: 1.92 µM (active)

## CCOC(=O)c1c(NC(=O)CCC(=O)O)sc2c1CCCCC2
[5]
  EC50: 24.5 µM (active)
[6]
  EC50: > 350 µM (not active)

## COC(=O)c1cc(C(=O)NC(C)C2CC3CCC2C3)cc([N+](=O)[O-])c1 (centres undefined)
[20]
  IC50: 11.5 µM (active)

## CC(=O)Nc1cccc(C(=O)/C=C/c2cccs2)c1
[13]
  EC50: 7.79 µM (active)
[14]
  EC50: 11.3 µM (active)

## COc1cccc(-c2cn(CC[C@@H]3CC[C@H](NS(=O)(=O)c4ccccc4Cl)[C@H](CO)O3)nn2)c1
[12]
  AC50: 7.33 µM (active)

## O=C(NC(Cc1ccc(I)cc1)C(=O)O)c1ccc(Cl)cc1 (centres undefined)
[1]
  GI50: 62.1 µM (inactive)
[2]
  GI50: 72.4 µM (inactive)
[3]
  GI50: > 100 µM (inactive)

## Cc1cccc(NC(=O)Nc2cccc(Oc3c(F)c(F)c(F)c(F)c3F)c2)c1
[7]
  EC50: 7.63 µM (active)
[13]
  EC50: 24.5 µM (active)
[8]
  EC50: 3.06 µM (active)
[14]
  EC50: 17.3 µM (active)
[21]
  AC50: 4.92 µM (active)

## CCOc1c(Cl)cc(CNC(C)C(O)c2ccccc2)cc1OC (centres undefined)
[4]
  EC50: 1.33 µM (active)

## CC(C)(C)c1ccc(N2C(=O)CC(C/C=C/c3ccccc3)C2=O)cc1 (centres undefined)
[5]
  EC50: > 350 µM (not active)
[6]
  EC50: > 350 µM (not active)

## Cc1cc(C)cc(C(=O)NC(=S)Nc2ccc(-c3cc4ccccc4oc3=O)cc2)c1
[13]
  EC50: 12.4 µM (active)
[14]
  EC50: 11.7 µM (active)

## O=S(=O)(O)c1ccc(/N=N\c2ccc(/N=N\c3ccc(/C=C/c4ccc(/N=[N+](/[O-])c5ccc(/C=C/c6ccc(/N=N/c7ccc(/N=N\c8ccc(S(=O)(=O)O)cc8)cc7)cc6S(=O)(=O)O)c(S(=O)(=O)O)c5)cc4S(=O)(=O)O)c(S(=O)(=O)O)c3)cc2)cc1
[1]
  GI50: > 100 µM (inactive)
[2]
  GI50: > 100 µM (inactive)
[3]
  GI50: > 100 µM (inactive)

## COc1cc(O)c2c(c1)C(=O)c1cc3c(c(O)c1C2=O)C(OC1OC(C)C(O)C(O)C1OC)C(OC)C(C)(O)C3=O (centres undefined)
[1]
  GI50: 7.59 µM (inactive)
[2]
  GI50: 5.66 µM (inactive)
[3]
  GI50: 2.42 µM (inactive)

## CCCCCCCCCCCCCCCCNCC(O)CN (centres undefined)
[1]
  GI50: 2.05 µM (inactive)
[2]
  GI50: 1.95 µM (inactive)
[3]
  GI50: 1.77 µM (inactive)

## CCN(CC)CCNc1ccc(CO)c2sc3ccccc3c(=O)c12 [HYCANTHONE MESYLATE]
[1]
  GI50: 7.35 µM (inactive)
[2]
  GI50: 2.94 µM (inactive)
[3]
  GI50: 7.43 µM (inactive)

## CCN(CCCCCN(C)C)Cc1cc2ccccc2o1
[5]
  EC50: > 350 µM (not active)
[6]
  EC50: > 350 µM (not active)
